Data from patent US20240226096A1, “TREATMENT OF MYELOPROLIFERATIVE DISEASES AND DISORDERS WITH INHIBITORS OF BET FAMILY BDII BROMODOMAIN” (POSEIDON INNOVATION 1, INC., priority 2022, published 2024).

Assays:
[1] = system: BaF3-EPOR-JAK2V617F cell line; test: BaF3-JAK2(V617F)-EPOR cell line proliferation assay (CellTiter-Glo), combination study; format: cell-based; conditions: 96 hours, FIG. 1
Description: (§1) Test compounds are dissolved at 10 mM DMSO stock solution. Transfer 45 uL of stock solution to a 384 PP-plate. Perform 3 fold, 10-point dilution via transferring 15 uL compound into 30 μL DMSO by using TECAN (EVO200) liquid handler. The plates are spin at room temperature at 1,000 RPM for 1 minute and shake at a plate shaker for 2 minutes. Transfer Compound A and Compound B of diluted compound from compound source plate into the cell plate by using liquid handler Echo665. Harvest the cells from flask into cell culture medium and then count the cell number. Dilute the cells with culture medium to the desired density and 40 μL of cell suspension is added into 384-well plate contain compound. Low control is adding cell culture medium. The final seeding density for SET-2 and BaF3-EPOR-JAK2V617F cell lines are 2,000 cells/well and 1000 cells/well respectively. Cover the plates with lid and mix the plate on orbital shaker (700-900 rpm) for 1 min, transfer the plates into 37° C. 5% CO2 incubator for 4 days culture. After compound treatment for 96 hours, remove the plate from incubators and equilibrated at room temperature for 15 minutes. Add CellTiter-Glo reagent into each well.
(§2) Place the plate on an orbital shaker, and shake at 500-700 rpm to facilitate cell lysis and ATP extraction from the cells. Measure luminescence after 5-10 minutes using BMG.

[2] = system: SET-2 cell line; test: SET-2 cell line proliferation assay (CellTiter-Glo), combination study; format: cell-based; conditions: 96 hours, FIG. 2
Description: as §1, §2

[3] = in combination with Ruxolitinib

Cn1ccn(-c2ccc(-c3cc(F)cc(-c4cccc(N5CCN(C(C)(C)C)CC5)c4)c3O)cc2Cl)c1=O [Compound I-1, 1-(3″-(4-(tert-butyl)piperazin-1-yl)-3-chloro-5′-fluoro-2′-hydroxy-[1,1′:3′,1″-terphenyl]-4-yl)-3-methyl-1,3-dihydro-2H-imidazol-2-one]
suppresses proliferation: proliferation of the BaF3-EPOR-JAK2V617F cell line ([1]; compound alone) | proliferation of the BaF3-EPOR-JAK2V617F cell line [1, 3] | proliferation of the SET-2 cell line ([2]; compound alone) | proliferation of the SET-2 cell line [2, 3]
